On the set-up of series [1]: method as in PMID 21073628, PMID 20932171. The settings on record: patients; cited from earlier work.
In series [2] the test system is chronic T. cruzi infection (CL Brener) in BALB/c mice. Also noted: method as in PMID 27748443. The settings on record: cited from earlier work.
Series [3] relates to isolated rat liver mitochondria. In words: calcium loading capacity (CLC) in rat liver mitochondria. In kind it is biochemical. Particulars: minimum effective concentration. The method, then: The CLC of freshly isolated liver mitochondria was determined as previously described ([70]). Briefly, mitochondria were suspended at 0.2 mg/ml in incubation buffer B, supplemented with 100 μM arsenazo III, 2.5 μM rotenone and 1 μg/ml oligomycin in each well of a 96 well microplate (control and treated mitochondria were assayed simultaneously) and absorbance measured every 2 seconds at 650 nm in a FlexStation3 microplate reader (Molecular Devices, Sunnyvale, CA, USA). After approximately 1 minute of reading, Ca^2+ was added (0.5-1 μmol/ mg mitochondrial protein) followed by the addition of 10 mM succinate as the mitochondrial substrate. The CLC was calculated as the difference in optical density (ΔOD) between the point at which mitochondria were energized and the point where mitochondrial permeability transition was triggered (i.e., the lowest OD reading before calcium release via MPT).
The concentration-response relationship was modelled using a robust fit of a cubic polynomial regression ([74], [75]). The fitted curves were then used to calculate the Minimum Effective Concentration (MEC). The MEC was defined as the lowest concentration where the fitted curve exceeded 3 standard deviations (SD) around the DMSO mean response. SD was estimated from the deviations of DMSO and compound treated wells around the fitted means, using a robust estimator based on Gini’s mean difference ([76]).

Each structure is given as a SMILES string.

Take `O=C(Cn1ccnc1[N+](=O)[O-])NCc1ccccc1` [Benznidazole, reference compound]: in series [1], the “discontinuation of treatment prior to completion due to adverse side-effects” value is recorded as “up to 29%”. Further, the “minimum efficacious dose in a five-day chronic study” value in series [2] is listed as 100 mg/kg.
Consider `COc1ccc(-c2c(C)[nH]c3nc(N)nc(C)c23)c(OC)c1` [Compound 4, 5-(2,4-Dimethoxyphenyl)-4,6-dimethyl-7H-pyrrolo[2,3-d]pyrimidin-2-amine], for which the “Calcium loading capacity, rat mitochondria, MEC” value in series [3] was over 200 µM.
On the same count and under the same terms, to `COc1cc(Cl)ccc1-c1c(C)[nH]c2nc(N)nc(C)c12` [Compound 3, 5-(4-Chloro-2-methoxyphenyl)-4,6-dimethyl-7H-pyrrolo[2,3-d]pyrimidin-2-amine] belongs 5.7 µM.

Values taken from publication PMC7615676, “Short-course combination treatment for experimental chronic Chagas disease” (Science translational medicine, 2023).
